Assay [1] concerns the target Nociceptin receptor (Rattus norvegicus) (UniProt P35370). Nature of the assay: Relative potency, ratio of wild type nociceptin EC50 to compound EC50 for stimulation of [35S]GTPgammaS binding to rat ORL1 receptor expressed in african green monkey COS7 cells. In kind it is functional, cell-based. The note with it: COS-7. (In general: Binding of GTPγS marks nucleotide exchange on a G protein.)

For assay [2] the target is unchanged. Nature of the assay: Relative potency, ratio of wild type nociceptin IC50 to compound IC50 for rat ORL1 receptor expressed in african green monkey COS7 cells. In kind it is cell-based. To be noted: COS-7.
The target in assay [3] is T1, Nociceptin receptor (Rattus norvegicus, UniProt P35370). Nature of the assay: Agonist activity at rat ORL1 receptor expressed in african green monkey COS7 cells assessed as stimulation of [35S]GTPgammaS binding by radioligand receptor-binding assay. In kind it is functional, cell-based, COS-7.
T1 sequence (P35370 whole entry): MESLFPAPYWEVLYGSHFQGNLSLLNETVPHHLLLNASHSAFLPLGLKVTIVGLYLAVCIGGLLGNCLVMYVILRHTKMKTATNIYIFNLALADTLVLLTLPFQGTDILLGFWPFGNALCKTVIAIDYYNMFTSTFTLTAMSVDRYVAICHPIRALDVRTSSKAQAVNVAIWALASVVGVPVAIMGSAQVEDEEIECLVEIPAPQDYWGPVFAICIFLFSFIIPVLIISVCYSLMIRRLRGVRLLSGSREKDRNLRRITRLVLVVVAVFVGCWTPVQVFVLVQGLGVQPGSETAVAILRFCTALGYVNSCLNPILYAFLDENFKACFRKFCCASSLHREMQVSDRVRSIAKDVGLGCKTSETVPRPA
Assay [4] has as its target T1, Nociceptin receptor. Description: Displacement of [3H]nociceptin from rat ORL1 receptor expressed in african green monkey COS7 cells by competitive binding assay. In kind it is cell-based, COS-7. (In general: In a radioligand displacement assay an active substance lowers the binding of a labelled ligand.)

The values that follow come from ChEMBL document CHEMBL1153068, “Discriminatory synergistic effect of Trp-substitutions in superagonist [(Arg/Lys)(14), (Arg/Lys)(15)]nociceptin on ORL1 receptor binding and activation” (Bioorg Med Chem, 2009).

Nociceptin receptor (Rattus norvegicus), sequence (P35370 whole entry): as above

As for `C[C@H](NC(=O)CNC(=O)[C@@H](NC(=O)[C@H](Cc1ccccc1)NC(=O)CNC(=O)CNC(=O)[C@@H](N)Cc1ccccc1)[C@@H](C)O)C(=O)N[C@@H](CCCNC(=N)N)C(=O)N[C@@H](CCCCN)C(=O)N[C@@H](CO)C(=O)N[C@@H](C)C(=O)N[C@@H](CCCNC(=N)N)C(=O)N[C@@H](CCCCN)C(=O)N[C@@H](CCCNC(=N)N)C(=O)N[C@@H](CCCCN)C(=O)N[C@@H](CC(N)=O)C(=O)N[C@@H](CCC(N)=O)C(=O)O`, in assay [1], the Ratio EC50 came out at 11.8. The Ratio IC50 in assay [2] worked out at 3.48.
For H-FGGFTGARKSARKWANQ-OH, in that order: 2.24 and 1.78.
The term EC50 denotes the concentration needed to bring the measured effect to its halfway point. As usually defined, the IC50 is the midpoint of a concentration-inhibition curve. “H-FGGFTGARKSARKWKNQ-OH [listing 1 of 2 here]”: the EC50 at Nociceptin receptor [3] was 1.3 nM. In addition, the 50% inhibitory concentration (IC50) on Nociceptin receptor [4] was 0.25 nM.
Regarding H-FGGFTGARKSARKWRNQ-OH, the concentration for a half-maximal effect (EC50) at Nociceptin receptor [3] came to 1.3 nM. The Ratio EC50 in assay [1] was determined as 10. On Nociceptin receptor [4], this compound showed a concentration for half-maximal inhibition (IC50) of 0.23 nM. Moreover, the Ratio IC50 in assay [2] was 3.17.
Regarding H-FGGFTGARKSARKLWNQ-OH, the Ratio EC50 in assay [1] was found to be 0.26. For the same compound, the Ratio IC50 in assay [2] turned out to be 0.35.
In the case of H-FGGFTGARKSARKKWNQ-OH, at Nociceptin receptor [3], the 50% effective concentration (EC50) stood at 3.2 nM. The Ratio EC50 in assay [1] was 4.06. Moreover, the concentration for half-maximal inhibition (IC50) on Nociceptin receptor [4] turned out to be 0.31 nM. For the same compound, in assay [2], the Ratio IC50 was determined as 2.35.
Consider “H-FGGFTGARKSARKWKNQ-OH [listing 2 of 2 here]”, for which the Ratio EC50 in assay [1] worked out at 10. Further, in assay [2], the Ratio IC50 came to 2.92.
With H-FGGFTGARKSARKRWNQ-OH, the EC50 at Nociceptin receptor [3] worked out at 3.1 nM. For the same compound, the Ratio EC50 in assay [1] turned out to be 4.19. For the same compound, the concentration for half-maximal inhibition (IC50) on Nociceptin receptor [4] was 0.3 nM. Also, the Ratio IC50 in assay [2] amounted to 2.43.
